The text below walks through data of patent publication US20260166159A1, “KRAS G12D DEGRADATION AGENT, AND PREPARATION METHOD AND USE THEREFOR” (LEADINGTAC PHARMACEUTICAL (SHAOXING) CO., LTD., priority 2022, published 2026).

Assay [1] concerns KRAS G12D mutant human pancreatic cancer cell HPAC. The assay is described as follows: 3D cell proliferation inhibition assay, HPAC. As to conditions: 168 h, 7 days, CTG. The assay is classed as cell-based. An excerpt: (§1) The inhibitory effects of the compounds on 3D cell proliferation were investigated on KRAS G12D mutant human lung cancer cell A427, KRAS G12D mutant human gastric cancer cell AGS, KRAS G12D mutant human metastatic pancreatic cancer cell AsPc-1, KRAS G12D mutant human pancreatic cancer cell Panc 04.03, KRAS G12D mutant human pancreatic cancer cell HPAC, KRAS G12V mutant human lung squamous cell carcinoma cell SW900, and KRAS WT human gastric cancer cell MKN1. The specific procedures were as follows:
(§2) 10 μL of each compound solution diluted in a gradient was added to corresponding wells of a 96-well low-adsorption microplate (PerkinElmer), so that the final concentrations of the test compounds in the reaction system were in a range of 10000-0.026 nM. The final concentration of DMSO was 0.2%. Then 90 µL of cells were correspondingly seeded into each well to achieve a cell density of 5×10^2 cells/well (the cell density of SW900 was 5×10^1 cells/well, and the cell density of MKN1 was 1×10^3 cells/well). In addition to test wells for the test compounds, both a DMSO control well and a medium control well were set, with the DMSO control well containing DMSO and cells and the medium well containing only a medium. After the sample loading, the 96-well low-adsorption microplate was incubated in an incubator at 37° C. with 5% carbon dioxide for 7 days. After 7 days, the microplate was taken out, and 100 μL of CTG reagent (Promega) was added to each well. The plate was incubated at room temperature for 60 min and read on a microplate reader EnVision by the chemiluminescence program. The inhibition rates of the compounds at each concentration were calculated using the formula for the percentage inhibition of cell proliferation: inhibition rate %=(mean value of DMSO control group−single concentration reading value of compound)/(mean value of DMSO control group−mean value of medium control group)×100. Then non-linear curve fittings for logarithmic concentration-inhibition rate were performed by GraphPad Prism 8, and the IC50 values of the compounds were obtained (Table 5).

Assay [2] has as its system KRAS G12D mutant human metastatic pancreatic cancer cell AsPc-1. The assay can be described thus: 3D cell proliferation inhibition assay, AsPc-1. The assay is classed as cell-based. As to conditions: ASPC1, 168 h, AsPc-1, 7 days, CTG, numeric values.
Description: as §1, §2

The target of assay [3] is T1, Human KRAS G12D 6His-tagged (Homo sapiens, UniProt P01116, G12D).
T1 construct: purchased PerkinElmer
The assay is described as follows: KRAS-G12D/GTP binding assay (HTRF). To be noted: numeric values. As for the experimental part:
In this method, the inhibitory effects of the compounds on the binding of KRAS-G12D to GTP were assayed by a homogeneous time-resolved fluorescence (HTRF) technique using a KRAS-G12D/GTP binding assay kit (PerkinElmer).
The experimental procedures were as follows (refer to the kit instructions for detailed test methods): the compounds of the present disclosure were each firstly dissolved in DMSO at a concentration of 20 mM, and then diluted in an equal gradient with a buffer in the kit, so that the final concentrations of the test compounds in the reaction system were in a range of 0.02-5000 nM, and the final concentration of DMSO was 0.5%. 5 μL of each compound was incubated with 5 μL of 1× Human KRAS G12D 6His-tagged (PerkinElmer), 5 μL of 1×6His Eu Cryptate Antibody (PerkinElmer), and 5 μL of 1×GTP Red reagent (PerkinElmer) in a 384-well plate (Greiner) at 25° C. for 1 h. After the incubation was completed, the fluorescence intensity of each well was measured at the excitation wavelength of 337 nm and the emission wavelengths of 620 nm and 665 nm with an EnVision microplate reader (PerkinElmer) in the HTRF mode, and Ratio values were calculated using the formula: Ratio=(665 nm/620 nm)×[…]. The inhibition rates of the compounds at each concentration were calculated by comparing the fluorescence intensity ratio with that of the control group. Then non-linear curve fittings for logarithmic concentration-inhibition rate were performed using the GraphPad Prism 8 analysis software, and the IC50 values of the compounds were obtained (Table 2).
On the technique in general: In TR-FRET formats the signal depends on donor and acceptor labels being close together.

In assay [4] the target is T2, KRAS-G12D (Homo sapiens, UniProt P01116, G12D).
T2 construct: endogenous in cells; host or cells: A-427 (ATCC), AGS, AsPc-1, Panc 04.03
The assay is described as follows: KRAS-G12D degradation assay (Western Blot), AsPc-1 cells. The format is cell-based. To be noted: for DC50: 24 h; for Dmax: ASPC1, 24 h. As for the experimental part: The degradation effects of the compounds on KRAS-G12D were investigated on KRAS G12D mutant human lung cancer cell A-427 (ATCC), KRAS G12D mutant human gastric cancer cell AGS, KRAS G12D mutant human metastatic pancreatic cancer cell AsPc-1, and KRAS G12D mutant human pancreatic adenocarcinoma cell Panc 04.03. The specific procedures were as follows: 0.95 mL of cells were seeded into each well of a 24-well cell culture plate to achieve a cell density of 5×10^5 cells/well; and the cell plate was incubated in an incubator at 37° C. with 5% CO2 overnight. Then 50 μL of the compound solution after dilution was added to each of the wells with the corresponding cells, so that the final concentration of the compound was in a range of 0.03-3000 nM. The final concentration of DMSO was 0.25%. After the compounds were added, the cell plate was incubated in the incubator at 37° C. with 5% CO2 for 24 h. The culture medium in the 24-well cell culture plate was removed, and the plate was washed twice with 1×PBS (KeyGEN). 120 μL of RIPA (strong) lysis buffer (Beyotime) supplemented with 1 mM phenylmethylsulfonyl fluoride, a protease inhibitor mixture (Beyotime), and a protease phosphatase inhibitor mixture (Beyotime) was added to lyse adherent A-427 cells at the bottom of the cell culture plate. After the plate was left to stand on ice for 30 min, the protein lysate in each well was transferred to a 1.5 mL centrifuge tube and centrifuged at 15000 g for 20 min at 4° C. The cell lysate supernatants after centrifugation were cryopreserved in a refrigerator at −80° C. for later use.
After the samples of the cell lysate supernatants that had been prepared were thawed from the refrigerator at −80° C., the total protein concentrations of the cell lysates were determined using a BCA protein quantification kit (Tiangen). The total protein concentrations of the samples were then adjusted to 0.5 μg/μL with PBS and 5×SDS-PAGE protein loading buffer (Beyotime), and the samples were incubated in a water bath at 100° C. for 15 min. The samples were then incubated in an ice bath for 5 min and centrifuged at 14000 g for 1 min at 4° C., and the supernatants were mixed well as loading samples for the Western Blot assay. The samples were loaded into wells of a 10% precast gel (KeyGEN) with a loading volume of 10 μL (total protein: 5 μg), a sufficient Tris-MOPS-SDS running buffer (Adamas) was added, and then electrophoresis was performed at a constant voltage of 120 V for 55 min. After the electrophoresis, the proteins on the gel were transferred to PVDF membranes at a constant current of 250 mA for 55 min. After the membrane transfer, the PVDF membranes were incubated in 1× Quick Block blocking buffer (Beyotime) at room temperature for 30 min. After the blocking, the PVDF membranes were separately incubated at 4° C. overnight with the KRAS antibody (Abcam) diluted in a ratio of 1:1000 and the […] antibody (Abcam) diluted in a ratio of 1:2000 in 5% BSA as the diluent, and then washed with 1×TBST buffer (2.4 g of Tris, 8.8 g of NaCl, 1.5 mL of Tween 20, with pH adjusted to 7.4, with the volume brought to 1 L) 3 times for 10 min/time. The membranes were incubated with a secondary antibody (Abcam) diluted in 5% BSA at room temperature for 2 h, and then washed with 1×TBST buffer 3 times for 10 min/time. Finally, the membranes were incubated with Clarity Western ECL Substrate (BIO-RAD) for 5 min for luminescence and color development, and a ChemiScope 6200 Touch chemiluminescence imaging system (Clinx) was used for color development and protein mapping. Gray value analysis of the protein maps was performed using the chemiluminescence analysis software (Clinx). The gray correction value for each sample was calculated using the formula: gray correction value=(gray value of target protein/gray value of corresponding internal reference)×10^3. Then degradation rates were calculated by comparison with the gray correction value of the control group. […]
A general note: A western blot detects proteins with antibodies after separation by electrophoresis.

In assay [5] the test system is KRAS G12D mutant human gastric cancer cell AGS. The assay is described as follows: 3D cell proliferation inhibition assay, AGS. The format is cell-based. To be noted: 168 h, 7 days, CTG, numeric values. Summed up: (§3)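 Cells seeded at 5×10^2 per well in low-adsorption plates with compounds at 10000–0.026 nM final (0.2% DMSO) and grown 7 days at 37 °C, 5% CO2. Viability by CellTiter-Glo luminescence after 60 min at room temperature; inhibition normalized to DMSO and medium-only controls, IC50 from nonlinear log-concentration fit.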

Assay [6] deals with KRAS G12D mutant human lung cancer cell A427. The assay is described as follows: 3D cell proliferation inhibition assay, A427. To be noted: A-427, 168 h, A427, 7 days, CTG, numeric values. The assay is classed as cell-based. Summed up: as §3
Assay [7] has as its system KRAS G12D mutant human pancreatic cancer cell Panc 04.03. The assay can be described thus: 3D cell proliferation inhibition assay, Panc 04.03. The format is cell-based. As to conditions: 168 h, Panc 04.03, 7 days, CTG, numeric values.
Description: as §1, §2

Assay [8] deals with T2, KRAS-G12D. The assay can be described thus: KRAS-G12D degradation assay (Western Blot), A-427 cells. The assay is classed as cell-based. To be noted: A427 cells, 24 h, numeric values. The method, boiled down: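 Each KRAS G12D mutant line (A-427, AGS, AsPc-1, Panc 04.03) was seeded at 5×10^5 cells/well and treated 24 h at 37 °C with 0.03–3000 nM compound (final DMSO 0.25%). KRAS in lysates was measured by Western blot, normalized to β-actin and compared with controls, giving DC50 and Dmax from curve fits.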

T2 sequence (P01116 1-188 isoform P01116-2 G12D): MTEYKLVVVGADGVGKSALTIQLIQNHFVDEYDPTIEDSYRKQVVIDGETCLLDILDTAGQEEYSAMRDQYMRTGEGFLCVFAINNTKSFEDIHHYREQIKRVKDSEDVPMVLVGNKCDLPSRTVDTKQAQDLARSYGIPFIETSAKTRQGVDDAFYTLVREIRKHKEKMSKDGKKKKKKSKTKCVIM
T1 sequence (P01116 1-188 isoform P01116-2 G12D): as above

Consider `C#Cc1c(F)ccc2cc(O)cc(-c3ncc4c(N5CC6CCC(C5)N6)nc(OCC(C)CN5CCN(CC6CCC7(CC6)CCN(C(=O)c6ccc(C)c(N8CCC(=O)NC8=O)c6)CC7)CC5)nc4c3F)c12` (stereo not shown) [Example 108, 1-(5-(9-((4-(3-((4-(3,8-diazabicyclo[3.2.1]octan-3-yl)-7-(8-ethynyl-7-fluoro-3-hydroxynaphthalen-1-yl)-8-fluoropyrido[4,3-d]pyrimidin-2-yl)oxy)-2-methylpropyl)piperazin-1-yl)methyl)-3-azaspiro[5.5]undecane-3-carbonyl)-2-methylphenyl)dihydropyrimidine-2,4(1H,3H)-dione], for which the IC50 – broadly, the concentration that inhibits the measured activity by half – turned out to be 6.87 nM in assay [1], 4.53 nM in assay [2] and 3.22 nM in assay [3].
Turning to `COc1ccc(C(=O)N2CCC3(CCC(CN4CCN(CC5(COc6nc(N7CC8CCC(C7)N8)c7cnc(-c8cc(O)cc(Cl)c8C8CC8)c(F)c7n6)CC5)CC4)CC3)CC2)cc1N1CCC(=O)NC1=O` [Example 89], the IC50 stood at 12.8 nM in assay [1], 8.65 nM in assay [5] and 11.5 nM in assay [2]. For the same molecule, the DC50 (in general, the concentration at which degradation of the target reaches its halfway point) on KRAS-G12D [4] worked out at 94.7 nM. Moreover, the Dmax (in general, the greatest extent of degradation seen) on KRAS-G12D [4] came to 69%.
In the case of `C#Cc1c(F)ccc2cc(O)cc(-c3ncc4c(N5CC6CCC(C5)N6)nc(OC[C@@H](C)CN5CCN(CC6CCC7(CC6)CCN(C(=O)c6ccc(OC)c(N8CCC(=O)NC8=O)c6)CC7)CC5)nc4c3F)c12` [Example 254, 1-(5-(9-((4-((S)-3-((4-(3,8-diazaspirobicyclo[3.2.1]octan-3-yl)-7-(8-ethynyl-7-fluoro-3-hydroxynaphthalen-1-yl)-8-fluoropyrido[4,3-d]pyrimidin-2-yl)oxy)-2-methylpropyl)piperazin-1-yl)methyl)-3-azaspiro[5.5]undecane-3-carbonyl)-2-methoxyphenyl)dihydropyrimidine-2,4(1H,3H)-dione], the IC50 worked out at 74.7 nM in assay [6], 14.3 nM in assay [1], 13 nM in assay [5] and 7.85 nM in assay [2]. This molecule also gave a DC50 on KRAS-G12D [4] of 32.5 nM. At KRAS-G12D [4], the Dmax amounted to 83.4%.
For `C#Cc1c(F)ccc2cc(O)cc(-c3ccc4c(N5CC6CCC(C5)N6)nc(OC[C@H](C)CN5CCN(CC6CCC7(CC6)CCN(C(=O)c6ccc(OC)c(N8CCC(=O)NC8=O)c6)CC7)CC5)nc4c3F)c12` [Example 207, 1-(5-(9-((4-((R)-3-((4-(3,8-diazabicyclo[3.2.1]octan-3-yl)-7-(8-ethynyl-7-fluoro-3-hydroxynaphthalen-1-yl)-8-fluoroquinazolin-2-yl)oxy)-2-methylpropyl)piperazin-1-yl)methyl)-3-azaspiro[5.5]undecane-3-carbonyl)-2-methoxyphenyl)dihydropyrimidine-2,4(1H,3H)-dione], at KRAS-G12D [4], the DC50 was determined as 15.1 nM. In addition, the Dmax at KRAS-G12D [4] amounted to 99.7%. Further, the IC50 in assay [7] amounted to 34.5 nM; in assay [5], 11.2 nM; in assay [2] it was 16.1 nM.
As to `[2H]C([2H])(C1CCC2(CC1)CCN(C(=O)c1ccc(C)c(N3CCC(=O)NC3=O)c1)CC2)N1CCN(CC2(COc3nc(N4CC5CCC(C4)N5)c4ccc(-c5cc(O)cc6ccc(F)c(C#C)c56)c(F)c4n3)CC2)CC1` [Example 107, 1-(5-(9-((4-((1-(((4-(3,8-diazabicyclo[3.2.1]octan-3-yl)-7-(8-ethynyl-7-fluoro-3-hydroxynaphthalen-1-yl)-8-fluoroquinazolin-2-yl)oxy)methyl)cyclopropyl)methyl)piperazin-1-yl)methyl-d2)-3-azaspiro[5.5]undecane-3-carbonyl)-2-methylphenyl)dihydropyrimidine-2,4(1H,3H)-dione], the figures for the IC50 in assay [1] and in assay [2] were 10.8 nM and 27.5 nM, respectively. Moreover, the DC50 on KRAS-G12D [4] is 13.7 nM; on KRAS-G12D [8], 4.98 nM. In addition, the Dmax on KRAS-G12D [4] was found to be 97.5%; on KRAS-G12D [8] (A-427), 94.7%.
